The values that follow come from patent publication US20240342138A1, “MICROTUBULE TARGETING AGENTS” (BPGbio, Inc., priority 2023, published 2024).

In data set [1] the test system is CTG-1520 PDX tumors. Nature of the data set: CTG-1520 PDX tumor growth in nude mice. It counts as in vivo. The method, then: FIG. 10A-10C show potency of Compound 1 in a patient-derived organoid model of taxane resistance. A) Overview of study design. B) CTG-1520 was implanted subcutaneously in nude mice and tumors were allowed to grow to a volume of 210 mm^3 followed by randomization of animals into three (3) groups (vehicle control, 75 mg/kg, 150 mg/kg Compound 1) with 12 animals per group. A Compound 1 solid dispersion was prepared prior to each dosing and administered by oral gavage two times a day (BID). Mean tumor volume of each group over time and the growth of tumor in each individual animal was graphed. For each individual animal of vehicle group tumor growth inhibition (TGI) % was calculated based on the tumor growth inhibition of individual tumor at each given day of the study compared to the average of the group for that given day of the study. P-values were calculated using two-tailed distribution and two-sample equal variance (homoscedastic) for each group treated with Compound 1 for each given day of the study in reference to vehicle control. ns p>0.05; *p≤0.05; **p≤0.01. C) Body weight of each individual animal was measured on days 0, 3, 6, 10, 13, and 17 and graphed using Graphpad Prism.
In a next step, the ability of Compound 1 to inhibit the growth of CTG-1520 PDX in nude mice was assessed. CTG-1520 was implanted subcutaneously in nude mice and tumors were allowed to grow to a volume of 210 mm^3 followed by randomization of animals into three (3) groups (vehicle control; 75 mg/kg, and 150 mg/kg Compound 1) with 12 animals per group (see FIG. 10A). A Compound 1 solid dispersion was administered by oral gavage two times a day (BID). All animals, except one (1) from the vehicle control group, survived through the study (17 days). One (1) animal from the vehicle control group reached the endpoint of 2000 mm^3 prior to day 17 and was eliminated from all calculations.

The test system of data set [2] is T98G cells. Nature of the data set: In vitro potency in glioblastoma cells, ATPlite 1Step (NTRC Oncolines). The following applies: Homo sapiens, FIG. 14A, read-out: In vitro potency (anti-cancer activity). It counts as cell-based. The text has this: FIG. 14A-14E show the efficacy of Compound 1 in glioblastoma cell lines in vitro and in a glioblastoma rat model (C6). A) In vitro potency of Compound 1 in four different glioblastoma cell lines as evaluated by Realtime-Glo™ assay (C6, and U87 cells) or ATPlite 1Step™ Perkin Elmer (performed by NTRC Oncolines; T98G and A-172 cells). B) Study design overview: C6 rat glioma cells (3×10^5) were implanted into the right entorhinal cortex/subiculum region of male Sprague Dawley rats and tumor burden was assessed 14 days post inoculation using MRI and animals randomized into […] (4) groups (vehicle control, 5 mg/kg, 10 mg/kg, and 20 mg/kg Compound 1) with 4 animals per group. […] C) Body weights were measured every two days. […]
Glioblastoma (GBM) is the most common and highly malignant form of primary brain tumor with a poor prognosis despite advances in treatments. […] Accordingly, the in vitro potency of Compound 1 was examined in four different glioblastoma cell lines as evaluated by Realtime-Glo™ assay (C6, and U87 cells) or ATPlite 1Step™ Perkin Elmer (performed by NTRC Oncolines; T98G and A-172 cells). […] Therefore, the in vivo tumor activity of Compound 1 was next assessed in Sprague Dawley rats implanted with C6 rat glioma cells into the right entorhinal cortex/subiculum region (AP: −7 mm; ML: 4.5 mm, DV: 5 mm). […]
(In general: ATP-based viability assays read luminescence as a measure of living cells.)

Data set [3] relates to COLO205 cells. Nature of the data set: In vitro potency, ATPlite 1Step (NTRC Oncolines). The class given is cell-based. Conditions: Homo sapiens, COLO 205. As to the method:
FIG. 11A-11E show the efficacy of Compound 1 in a colorectal cancer xenograft model (COLO205). A) In vitro potency of Compound 1 in COLO205 cells as evaluated by ATPlite 1Step™ Perkin Elmer (performed by NTRC Oncolines). B) COLO205 cells were implanted subcutaneously in nude mice and tumors were allowed to grow to a volume of 210 mm3 followed by randomization of animals into three (3) groups (vehicle control, 75 mg/kg, 150 mg/kg Compound 1) with 12 animals per group. A Compound 1 solid dispersion was prepared prior to each dosing and administered by oral gavage two times a day (BID). Mean tumor volume of each group over time and the growth of tumor in each individual animal was graphed. For each individual animal of […] group TGI (%) was calculated based on the tumor growth inhibition of individual tumor at each given day of the study compared to the average of the group for that given day of the study. P-values were calculated using two-tailed distribution and two-sample equal variance (homoscedastic) for each group treated with Compound 1 for each given day of the study in reference to vehicle control. […] The level of two biomarkers, pHH3 and CCNB1 in each tissue was measured and graphed as the Min-to-Max plot and scatter plot of the level of each biomarker. […] E) Body weight of each individual animal was measured on each day of the study and graphed using Graphpad Prism. […]

Turning to `COc1ccccc1-c1nc(CNC(=O)c2ccccc2OC(F)F)n[nH]1` [Compound 1, 2-(difluoromethoxy)-N-[[5-(2-methoxyphenyl)-1H-1,2,4-triazol-3-yl]methyl]benzamide], the “Tumor volume relative to vehicle control” value in data set [1] (75 mg/kg BID oral gavage, 17 days) is on record as “reduced tumor volume relative to the vehicle control, but to a lesser extent than the 150 mg/kg dose”. Also, the Tumor growth inhibition entry in data set [1] (150 mg/kg BID oral gavage, 17 days) is “significant tumor growth inhibition”. Moreover, the Body weight result in data set [1] (75 and 150 mg/kg BID, FIG. 10C) is reported as “No body weight loss”. Further, the IC50 in data set [2] was 39 nM; in data set [3] (COLO205), 67 nM. Moreover, the Emax in data set [3] (COLO205, in vitro, read-out: Maximum effect (%)) was determined as 95%.
